# Laboratory results as given in patent publication US20150258059A1, “ANTIMICROBIAL AND RADIOPROTECTIVE COMPOUNDS” (BioDiem, Ltd, priority 2001, published 2015).
# Read-outs that look alike come from different tables or passages of the source.
# Legend:
# Type in all cases: cell-based
# [1] = system: Staphylococcus aureus ATCC 29213; assay: NCCLS broth microdilution MIC/MBC; conditions: for MIC: Staphylococcus aureus, ATCC29213
# [2] = system: Serratia marcescens RMIT; assay: NCCLS broth microdilution MIC/MBC; conditions: for MIC: Serratia marcescens
# [3] = system: Pseudomonas aeruginosa ATCC 27853; assay: NCCLS broth microdilution MIC/MBC; conditions: for MIC: Pseudomonas aeruginosa, ATCC27853
# [4] = system: Proteus vulgaris RMIT; assay: NCCLS broth microdilution MIC/MBC; conditions: for MIC: Proteus vulgaris
# [5] = system: Escherichia coli ATCC 25922; assay: NCCLS broth microdilution MIC/MBC; conditions: for MIC: Escherichia coli, ATCC25922
# [6] = system: Klebsiella pneumoniae M-A21; assay: Sensitivity of strains: suppression of growth; conditions: Compound (1) 1.0%; antibiotics disc method
# [7] = system: Conditional pathogenic enterobacteria gram-negative aerobic bacilli; also: key: + sensitive strains; + moderately sensitive strains; − stable strains
# [8] = system: Klebsiella pneumoniae M-248; assay: Sensitivity of strains: suppression of growth; conditions: Compound (1) 1.0%; antibiotics disc method
# [9] = system: Shigella flexneri M-2A6907; assay: Sensitivity of strains: suppression of growth; conditions: Compound (1) 1.0%; antibiotics disc method
# [10] = system: Salmonella paratyphi M-16469; assay: Sensitivity of strains: suppression of growth; conditions: Compound (1) 1.0%; antibiotics disc method
# [11] = system: Escherichia coli M-17; assay: Sensitivity of strains: suppression of growth; conditions: Compound (1) 1.0%; antibiotics disc method
# [12] = system: Escherichia coli B-683; assay: Sensitivity of strains: suppression of growth; conditions: Compound (1) 1.0%; antibiotics disc method
# [13] = system: Staphylococcus epidermidis BK-30; assay: Sensitivity of strains: suppression of growth; conditions: Compound (1) 1.0%; antibiotics disc method
# [14] = system: Staphylococcus aureus B-685; assay: Sensitivity of strains: suppression of growth; conditions: Compound (1) 1.0%; antibiotics disc method
# [15] = system: Pseudomonas aeruginosa B-601; assay: Sensitivity of strains: suppression of growth; conditions: Compound (1) 1.0%; antibiotics disc method
# [16] = system: Alkaligenes sp. B-689; assay: Sensitivity of strains: suppression of growth; conditions: Compound (1) 1.0%; antibiotics disc method
# [17] = system: Acinetobacter B-681; assay: Sensitivity of strains: suppression of growth; conditions: Compound (1) 1.0%; antibiotics disc method
# [18] = system: Staphylococcus aureus M-209; assay: Sensitivity of strains: suppression of growth; conditions: Compound (1) 1.0%; antibiotics disc method
# [19] = system: Staphylococcus aureus M-12159; assay: Sensitivity of strains: suppression of growth; conditions: Compound (1) 1.0%; antibiotics disc method
# [20] = system: Neisseria meningitidis M-6231; assay: Sensitivity of strains: suppression of growth; conditions: Compound (1) 1.0%; antibiotics disc method
# [21] = system: Neisseria meningitidis M-A72; assay: Sensitivity of strains: suppression of growth; conditions: Compound (1) 1.0%; antibiotics disc method
# [22] = system: Salmonella typhimurium M-727; assay: Sensitivity of strains: suppression of growth; conditions: Compound (1) 1.0%; antibiotics disc method
# [23] = system: γ-hemolytic streptococcus B-672; assay: Sensitivity of strains: suppression of growth; conditions: Compound (1) 1.0%; antibiotics disc method
# [24] = system: Enterobacter aerogenes B-679; assay: Sensitivity of strains: suppression of growth; conditions: Compound (1) 1.0%; antibiotics disc method
# [25] = system: Staphylococcus aureus B-674; assay: Sensitivity of strains: suppression of growth; conditions: Compound (1) 1.0%; antibiotics disc method
# [26] = system: Alkaligenes sp. B-667; assay: Sensitivity of strains: suppression of growth; conditions: Compound (1) 1.0%; antibiotics disc method
# [27] = system: Citrobacter diversus B-678; assay: Sensitivity of strains: suppression of growth; conditions: Compound (1) 1.0%; antibiotics disc method
# [28] = system: Staphylococci epidermidis D-513; assay: Sensitivity of strains: suppression of growth; conditions: Compound (1) 1.0%; antibiotics disc method
# [29] = system: Enterobacter aerogenes B-687; assay: Sensitivity of strains: suppression of growth; conditions: Compound (1) 1.0%; antibiotics disc method
# [30] = system: Acinetobacter B-677; assay: Sensitivity of strains: suppression of growth; conditions: Compound (1) 1.0%; antibiotics disc method
# [31] = system: Yersinia pseudotuberculosis; conditions: Compound (1) 1.0%; antibiotics disc method
# [32] = system: Shigella sonnei B-720; assay: Sensitivity of strains: suppression of growth; conditions: Compound (1) 1.0%; antibiotics disc method
# [33] = system: Escherichia coli B-65; assay: Sensitivity of strains: suppression of growth; conditions: Compound (1) 1.0%; antibiotics disc method
# [34] = system: Corynebacterium diphtheriae B-670; assay: Sensitivity of strains: suppression of growth; conditions: Compound (1) 1.0%; antibiotics disc method
# [35] = system: Acinetobacter B-676; assay: Sensitivity of strains: suppression of growth; conditions: Compound (1) 1.0%; antibiotics disc method
# [36] = system: β-hemolytic streptococcus B-624; assay: Sensitivity of strains: suppression of growth; conditions: Compound (1) 1.0%; antibiotics disc method
# [37] = system: Bacillus sp. B-575; assay: Sensitivity of strains: suppression of growth; also: key: + sensitive strains; + moderately sensitive strains; − stable strains
# [38] = Table 9, 35° C., 24 hours, read-out: MIC
# [39] = Table 17, 2 or 3 replicates, read-out: MIC
structure (smiles),measurement,setting,value
"CCCCCCCCCCCCCCCC[N+](C)(C)C.[Br-] [CTAB, cetyl trimethyl ammonium bromide]",MIC,[1],16 µg/mL
same,MMC,"[1]; Table 17, 2 or 3 replicates",32 µg/mL
same,MIC,[2],128 µg/mL
same,MMC,"[2]; Table 17, 2 or 3 replicates",128 µg/mL
same,MIC,[3],512 µg/mL
same,MMC,"[3]; Table 17, 2 or 3 replicates",>512 µg/mL
same,MIC,[4],128 µg/mL
same,MMC,"[4]; Table 17, 2 or 3 replicates",256 µg/mL
same,MIC,[5],16 µg/mL
same,MMC,"[5]; Table 17, 2 or 3 replicates",16 µg/mL
"CC[C@H]1OC(=O)[C@H](C)[C@@H](O[C@H]2C[C@@](C)(OC)[C@@H](O)[C@H](C)O2)[C@H](C)[C@@H](O[C@@H]2O[C@H](C)C[C@H](N(C)C)[C@H]2O)[C@](C)(O)C[C@@H](C)C(=O)[C@H](C)[C@@H](O)[C@]1(C)O [Antibiotic 14, erythromycin]",Suppression of Growth (+/−),[6],−
same,Suppression of Growth (+/−),[7],−
same,Suppression of Growth (+/−),[8],−
same,Suppression of Growth (+/−),[9],−
same,Suppression of Growth (+/−),[10],−
same,Suppression of Growth (+/−),[11],+
same,Suppression of Growth (+/−),[12],+
same,Suppression of Growth (+/−),[13],−
same,Suppression of Growth (+/−),[14],−
same,Suppression of Growth (+/−),[15],+
same,Suppression of Growth (+/−),[16],−
same,Suppression of Growth (+/−),[17],−
same,Suppression of Growth (+/−),[18],−
same,Suppression of Growth (+/−),[19],−
same,Suppression of Growth (+/−),[20],−
same,Suppression of Growth (+/−),[21],−
same,Suppression of Growth (+/−),[22],−
same,Suppression of Growth (+/−),[23],−
same,Suppression of Growth (+/−),[24],−
same,Suppression of Growth (+/−),[25],+
same,Suppression of Growth (+/−),[26],−
same,Suppression of Growth (+/−),[27],−
same,Suppression of Growth (+/−),[28],−
same,Suppression of Growth (+/−),[29],−
same,Suppression of Growth (+/−),[30],−
same,Suppression of Growth (+/−),[31],−
same,Suppression of Growth (+/−),[32],−
same,Suppression of Growth (+/−),[33],+
same,Suppression of Growth (+/−),[34],+
same,Suppression of Growth (+/−),[35],−
same,Suppression of Growth (+/−),[36],−
[H]/N=C(\N/C(=N/[H])NCCCCCCNC(=N)NC(=N)Nc1ccc(Cl)cc1)Nc1ccc(Cl)cc1 [Chlorhexidine],MIC,[1]; [38],2 µg/mL
same,MIC,[1]; [39],2 µg/mL
same,MMC,"[1]; Table 9, 35° C., 24 hours",8 µg/mL
same,MMC,"[1]; Table 17, 2 or 3 replicates",8 µg/mL
same,MIC,[2]; [38],16 µg/mL
same,MIC,[2]; [39],16 µg/mL
same,MMC,"[2]; Table 9, 35° C., 24 hours",32 µg/mL
same,MMC,"[2]; Table 17, 2 or 3 replicates",32 µg/mL
same,MIC,[3]; [38],32 µg/mL
same,MIC,[3]; [39],32 µg/mL
same,MMC,"[3]; Table 9, 35° C., 24 hours",64 µg/mL
same,MMC,"[3]; Table 17, 2 or 3 replicates",64 µg/mL
same,MIC,[4]; [38],6 µg/mL
same,MIC,[4]; [39],6 µg/mL
same,MMC,"[4]; Table 9, 35° C., 24 hours",128 µg/mL
same,MMC,"[4]; Table 17, 2 or 3 replicates",128 µg/mL
same,MIC,[5]; [38],2 µg/mL
same,MIC,[5]; [39],2 µg/mL
same,MMC,"[5]; Table 9, 35° C., 24 hours",4 µg/mL
same,MMC,"[5]; Table 17, 2 or 3 replicates",4 µg/mL
"Cc1onc(-c2ccccc2)c1C(=O)N[C@@H]1C(=O)N2[C@@H]1SC(C)(C)[C@@H]2C(=O)O [Antibiotic 8, oxacillin]",Suppression of Growth (+/−),[6],−
same,Suppression of Growth (+/−),[8],−
same,Suppression of Growth (+/−),[9],−
same,Suppression of Growth (+/−),[10],−
same,Suppression of Growth (+/−),[11],−
same,Suppression of Growth (+/−),[12],−
same,Suppression of Growth (+/−),[13],+
same,Suppression of Growth (+/−),[14],+
same,Suppression of Growth (+/−),[15],−
same,Suppression of Growth (+/−),[16],−
same,Suppression of Growth (+/−),[17],−
same,Suppression of Growth (+/−),[18],−
same,Suppression of Growth (+/−),[19],+
same,Suppression of Growth (+/−),[20],−
same,Suppression of Growth (+/−),[21],−
same,Suppression of Growth (+/−),[22],−
same,Suppression of Growth (+/−),[23],−
same,Suppression of Growth (+/−),[24],−
same,Suppression of Growth (+/−),[25],−
same,Suppression of Growth (+/−),[26],−
same,Suppression of Growth (+/−),[27],−
same,Suppression of Growth (+/−),[28],+
same,Suppression of Growth (+/−),[29],−
same,Suppression of Growth (+/−),[30],−
same,Suppression of Growth (+/−),[31],−
same,Suppression of Growth (+/−),[32],−
same,Suppression of Growth (+/−),[33],−
same,Suppression of Growth (+/−),[34],−
same,Suppression of Growth (+/−),[35],−
same,Suppression of Growth (+/−),[36],−
same,Suppression of Growth (+/−),[37],−
